According to publication PMC9605374 (Marine Drugs, 2022):

Tests used:
[1] = system: 22Rv1 cells; assay: Trypan blue exclusion assay; type: cell-based; conditions: Homo sapiens, 22Rv1, trypan blue exclusion
Procedure: Figure 2 Trypan blue exclusion assay. 22Rv1 cells were treated for 48 h (A) or 168 h (B) with the indicated concentrations of NB. The cells were harvested, stained, and counted with an automatic Vi-CELL cell counter device. Number of replicates n = 3.
The trypan blue exclusion assay was used to monitor the effect of the drugs on cell viability regarding cellular membrane integrity and was performed as described before. In brief, cells (2 × 10^5 cells/well) were seeded in 6-well plates (1 mL/well) and incubated overnight. Next, the media was substituted with fresh media (1 mL/well) containing drugs at indicated concentrations. Cells were treated for 48 h, harvested by trypsination, and stained with trypan blue. The automatic Beckman Coulter Vi-CELL (Beckman Coulter, Krefeld, Germany) was used to count trypan blue-positive and -negative cells. Trypan blue-negative cells were postulated to have an intact cellular membrane (i.e., alive cells), whereas trypan blue-positive cells were assumed to have damaged cellular membrane (i.e., dead cells).

[2] = system: 22Rv1; assay: Colony formation assay; type: cell-based, human; conditions: 22Rv1, 48 h treatment then 14 days, nanomolar concentrations
Procedure: (§1) Next, we investigated the effect of NB on the ability of cancer cells to form colonies from single cells using a colony formation assay and a preplating mode. […] However, this speculation awaits further confirmation in vivo.
(§2) Figure 3 Colony formation assay. The human cancer cells were seeded in 6-well plates and treated for 48 h with the indicated concentrations of NB. Then, the media was exchanged, and the plates were incubated for 14 days, which was followed by fixation, staining, and counting. Number of replicates n = 3. Statistical significance: * p < 0.05 (ANOVA).

[3] = system: PC3; assay: Colony formation assay; type: cell-based, human; conditions: PC3, 48 h treatment then 14 days, nanomolar concentrations
Procedure: as §1, §2

[4] = system: VCaP; assay: Colony formation assay; type: cell-based, human; conditions: 48 h treatment then 14 days, nanomolar concentrations
Procedure: as §1, §2

[5] = system: ERK1/2 in 22Rv1 cells; assay: Western blotting, MAPK activation; type: cell-based, human; conditions: 22Rv1, 1 µM or 10 µM
Procedure: (§3) We examined several time points, specifically, 15 min, 2 h, and 48 h (Figure 6).
(§4) Figure 6 Validation of kinome analysis data. 22Rv1 cells were treated with 1 µM or 10 µM of NB for the indicated time. The protein expression was analyzed by Western blotting using total protein load equal to 30 µg/slot. α-Tubulin was used as a loading control.
(§5) The Western blot assay was executed as previously described: 1 × 10^6 cells were seeded in Petri dishes (ø 6 cm, 5 mL/dish) and incubated overnight. On the next day, the cells were treated with the compounds in fresh culture media (5 mL/dish) for the indicated time. Next, cells were harvested with a cell scraper and lysed in lysis buffer including protease and phosphatase inhibitors cocktail (Roche, Mannheim, Germany). Cell debris were removed from the protein lysates via centrifugation. Afterwards, the cell-free protein mixtures were separated in gradient ready-made Mini-PROTEAN® TGX Stain-Free^TM gels (Bio-Rad, Hercules, CA, USA) using SDS-PAGE (sodium dodecylsulfate polyacrylamide gel electrophoresis). Then, the proteins were blotted onto ø 0.2 µm pore PVDF membrane. The membrane was blocked and consequently treated with primary and secondary antibodies for protein detection. The signals were detected using the ECL chemiluminescence system (Thermo Scientific, Rockford, IL, USA).

[6] = system: JNK1/2 in 22Rv1 cells; assay: Western blotting, MAPK activation; type: cell-based, human; conditions: 22Rv1, 1 µM or 10 µM
Procedure: as §3, §4, §5

[7] = system: p38 in 22Rv1 cells; assay: Western blotting, MAPK activation; type: cell-based, human; conditions: 22Rv1, 1 µM or 10 µM, 2 h
Procedure: as §3, §4, §5

[8] = system: 22Rv1 cells; assay: Drug combination study NB with MAPK inhibitors, MTT assay, SynergyFinder 2.0; type: cell-based; conditions: Homo sapiens, 22Rv1, 24 h, 24 h; for inhibition at 0.8 µM: 22Rv1, NB alone 0.8 μM; for inhibition at 3.1 µM: 22Rv1, NB alone 3.1 μM; for inhibition at 12.5 µM: 22Rv1, NB alone 12.5 μM; for inhibition at 50 µM: 22Rv1, NB alone 50 μM
Text: Whether activation of MAPKs contribute to cell death or survival depends not only on the cellular context, but also on the nature of the activating stimuli. Thus, to reveal the function of JNK1/2 and p38 in the anticancer effect of NB, we co-treated 22Rv1 cells with NB and specific inhibitors of the above-mentioned MAPKs. […] As MEK1/2 kinase directly and exclusively activates ERK1/2, PD98039 inhibitor is often used as an ERK1/2 inhibitor [38]. Thus, an inactivation of MEK1/2 leads solely to an inhibition of ERK1/2 [38]. Since the inhibitors themselves exert cytotoxic effects in cancer cells, we used a Chou–Talalay method to distinguish between synergism, additive effects, or antagonistic effects of the particular MAPK inhibitor on the compound bioactivity. For this, using an MTT assay, we determined a cytotoxic effect on various concentrations of NB, MAPK inhibitors, and their combinations in 22Rv1 cells. The viability data were further analyzed using the SynergyFinder v. 2.0 software (Network Pharmacology for Precision Medicine in the Research Program of System Oncology, Faculty of Medicine at University of Helsinki, Helsinki, Finland) and a Zero interaction potency (ZIP) reference model (Figure 7).
The experiments were carried out as previously reported. […] 22Rv1 cells (6 × 10^3 cells/well in 96-well plates) were simultaneously treated with NB and docetaxel; or pretreated with MAPK inhibitors for 1 h following treatment with NB in the total media volume of 100 µL/well. Following 24 h of incubation, the viability of the cells treated with individual drugs as well as their combinations was determined using MTT assay. […] Red areas (positive δ-values) and green areas (negative δ-values) indicate synergism and antagonism, respectively.

[9] = system: mouse lymphoma cells L5178Y; design: method as in doi:10.1016/j.phytol.2014.12.010; conditions: cited from earlier work

## COc1ccc(C2SSC34CC5(O)C(Cl)C=CC(O)C5ON3C(=O)C2N(C)C4=O)c(O)c1OC (stereo not shown) [NB, N-methylpretrichodermamide B]
[1]; 48 h
  IC50: 129 ± 62 nM
[1]; 168 h
  IC50: 276 ± 58 nM
[2]
  colony-formation ability: inhibit the colony-formation ability
[3]
  colony-formation ability: inhibit the colony-formation ability
[4]
  colony-formation ability: inhibit the colony-formation ability
[5]
  activation of ERK1/2: no activation
[6]; 2 h
  JNK1/2 phosphorylation: pronounced JNK1/2 phosphorylation
[6]; 48 h
  JNK1/2 phosphorylation: no phosphorylation (or even slight downregulation)
[7]
  activation of p38: activation of p38
[8]; matrix with PD98059 (0 μM)
  inhibition at 0.8 µM: 28.5%
  inhibition at 3.1 µM: 35.2%
  inhibition at 12.5 µM: 43.4%
  inhibition at 50 µM: 51.9%
[8]; matrix with SB203580 (0 μM)
  inhibition at 0.8 µM: 29.1%
  inhibition at 3.1 µM: 33.3%
  inhibition at 12.5 µM: 48.2%
  inhibition at 50 µM: 54.9%
[8]; matrix with SP600125 (0 μM)
  inhibition at 0.8 µM: 17.3%
  inhibition at 3.1 µM: 25.2%
  inhibition at 12.5 µM: 40.5%
  inhibition at 50 µM: 41%
[9]
  IC50: 2000 nM
